Each structure is given as a SMILES string.

A word on the IC50: it is the concentration needed to halve the response being measured. By viability, T/C is commonly meant the ratio of treated to control.

The subject of the assay is 292921-168-R-J2-PDC KRAS tumor spheroid viability. As to the kind of experiment: Anticancer human tumor 292921-168-R-J2-PDC patient-derived pancreatic carcinoma cell line growth inhibition [KRAS2]. As to conditions: spheroids with HUVEC and MSC; for viability, T/C: stronger effect = lower value. In a few lines: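 Combination screen of spheroid viability in tumor-cell co-cultures with endothelial (HUVEC) and mesenchymal stem cell stroma. Each agent was tested in half-log dilutions, topping at clinical Cmax or at 10 microM without a known Cmax.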

Setting [1] is: curve of first compound, second compound 0.1 µM.
Setting [2] is: curve of first compound, second compound 0.316 µM.
The mark [3] stands for this setting: curve of first compound, second compound 1 µM.
Where [4] appears, read: curve of first compound, second compound 3.16 µM.
Where [5] appears, read: curve of first compound, second compound 10 µM.
Where [6] appears, read: second compound 0.1 µM, first compound 0.0316 µM.
The mark [7] stands for this setting: second compound 0.1 µM, first compound 0.1 µM.
The mark [8] stands for this setting: second compound 0.1 µM, first compound 0.316 µM.
Where [9] appears, read: second compound 0.1 µM, first compound 1 µM.
Setting [10] is: second compound 0.316 µM, first compound 0.0316 µM.
[11] abbreviates: second compound 0.316 µM, first compound 0.1 µM.
The mark [12] stands for this setting: second compound 0.316 µM, first compound 0.316 µM.
Where [13] appears, read: second compound 0.316 µM, first compound 1 µM.
[14] abbreviates: second compound 1 µM, first compound 0.0316 µM.
[15] abbreviates: second compound 1 µM, first compound 0.1 µM.
Setting [16] is: second compound 1 µM, first compound 0.316 µM.
Setting [17] is: second compound 1 µM, first compound 1 µM.
The mark [18] stands for this setting: second compound 3.16 µM, first compound 0.0316 µM.
Setting [19] is: second compound 3.16 µM, first compound 0.1 µM.
Setting [20] is: second compound 3.16 µM, first compound 0.316 µM.
[21] abbreviates: second compound 3.16 µM, first compound 1 µM.
Setting [22] is: second compound 10 µM, first compound 0.0316 µM.
The mark [23] stands for this setting: second compound 10 µM, first compound 0.1 µM.
Where [24] appears, read: second compound 10 µM, first compound 0.316 µM.
[25] abbreviates: second compound 10 µM, first compound 1 µM.
Where [26] appears, read: second compound 0.1 µM, first compound 3.16 µM.
Setting [27] is: second compound 0.1 µM, first compound 10 µM.
Setting [28] is: second compound 0.316 µM, first compound 3.16 µM.
[29] abbreviates: second compound 0.316 µM, first compound 10 µM.
Setting [30] is: second compound 1 µM, first compound 3.16 µM.
[31] abbreviates: second compound 1 µM, first compound 10 µM.
The mark [32] stands for this setting: second compound 3.16 µM, first compound 3.16 µM.
The mark [33] stands for this setting: second compound 3.16 µM, first compound 10 µM.
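Also: drug exposure lasted seven days after spheroids formed for three days.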
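For viability, T/C in this document: percent of DMSO vehicle control viability which is 100%.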

For the molecule `CCN1CCN(Cc2ccc(Nc3ncc(F)c(-c4cc(F)c5nc(C)n(C(C)C)c5c4)n3)nc2)CC1` + CNCc1ccccc1-c1csc(C(C)Nc2nc(C)nc3cc(OC)c(OC)cc23)c1, the 50% inhibitory concentration (IC50) was 19.8 nM under setting [1]; 16.1 nM under setting [2]; 4.44 nM under setting [3]; < 3.16 nM under setting [4]; < 3.16 nM under setting [5]. In addition, the viability, T/C is 76.5% (second compound 0.1 µM, first compound 0.00316 µM); 60.9% (second compound 0.1 µM, first compound 0.01 µM); 42% under setting [6]; 30.9% under setting [7]; 24.8% under setting [8]; 19.1% under setting [9]. In addition, the viability, T/C was 73.2% (second compound 0.316 µM, first compound 0.00316 µM); 57.4% (second compound 0.316 µM, first compound 0.01 µM); 37.1% under setting [10]; 31.8% under setting [11]; 23.6% under setting [12]; 12.3% under setting [13]. Also, the viability, T/C is 54.3% (second compound 1 µM, first compound 0.00316 µM); 42.6% (second compound 1 µM, first compound 0.01 µM); 28.6% under setting [14]; 22.3% under setting [15]; 21.3% under setting [16]; 0.5% under setting [17]. In addition, the viability, T/C runs as follows: (second compound 3.16 µM, first compound 0.00316 µM) 0.12%; (second compound 3.16 µM, first compound 0.01 µM) 0.07%; under setting [18], 0.04%; under setting [19], 0.05%; under setting [20], 0.1%; under setting [21], 0.1%. Also, the viability, T/C runs as follows: (second compound 10 µM, first compound 0.00316 µM) 0.11%; (second compound 10 µM, first compound 0.01 µM) 0.11%; under setting [22], 0.08%; under setting [23], 0.08%; under setting [24], 0.08%; under setting [25], 0.13%.
As for `CC(C)NCC(C(=O)N1CCN(c2ncnc3c2C(C)CC3O)CC1)c1ccc(Cl)cc1` (centres undefined) + C=CC(=O)N1CCN(c2nc(OCC3CCCN3C)nc3c2CCN(c2cccc4cccc(C)c24)C3)CC1CC#N, the IC50 (curve of first compound, second compound 0.0316 µM) is > 10000 nM; the IC50 under setting [1] is > 10000 nM; the concentration for half-maximal inhibition (IC50) under setting [2] amounted to 6010 nM; the IC50 under setting [3] is < 31.6 nM; the IC50 under setting [4] was < 31.6 nM. Further, the viability, T/C (second compound 0.0316 µM, first compound 0.0316 µM) was 88%; the viability, T/C (second compound 0.0316 µM, first compound 0.1 µM) is 84.6%; the viability, T/C (second compound 0.0316 µM, first compound 0.316 µM) was 84.5%; the viability, T/C (second compound 0.0316 µM, first compound 1 µM) was 82%; the viability, T/C (second compound 0.0316 µM, first compound 3.16 µM) is 73.9%; the viability, T/C (second compound 0.0316 µM, first compound 10 µM) was 54.7%. Also, the viability, T/C by setting is: under setting [6], 85.2%; under setting [7], 78.6%; under setting [8], 85.3%; under setting [9], 79.3%; under setting [26], 74.4%; under setting [27], 51.8%. The viability, T/C was 71.5% under setting [10]; 68.5% under setting [11]; 65.1% under setting [12]; 69.2% under setting [13]; 59% under setting [28]; 42.3% under setting [29]. In addition, the viability, T/C runs as follows: under setting [14], 36.7%; under setting [15], 28.8%; under setting [16], 28.9%; under setting [17], 32.1%; under setting [30], 28.1%; under setting [31], 21%. Also, the viability, T/C by setting is: under setting [18], 0.1%; under setting [19], 0.09%; under setting [20], 0.09%; under setting [21], 0.1%; under setting [32], 0.11%; under setting [33], 0.21%.
For the molecule `COC(=O)c1ccc2c(C(=Nc3ccc(N(C)C(=O)CN4CCN(C)CC4)cc3)c3ccccc3)c(O)[nH]c2c1` + C=CC(=O)N1CCN(c2nc(=O)n(-c3c(C)ccnc3C(C)C)c3nc(-c4c(O)cccc4F)c(F)cc23)C(C)C1, the IC50 runs as follows: under setting [1], < 31.6 nM; under setting [2], < 31.6 nM; under setting [3], 58.8 nM; under setting [4], 41.8 nM; under setting [5], < 31.6 nM. Further, the viability, T/C is 44.2% under setting [6]; 39.2% under setting [7]; 30.9% under setting [8]; 18.8% under setting [9]; 11.9% under setting [26]; 0.29% under setting [27]. The viability, T/C reads like this: under setting [10], 48.4%; under setting [11], 40.6%; under setting [12], 25.3%; under setting [13], 20.1%; under setting [28], 5.83%; under setting [29], 0.17%. Also, the viability, T/C was 56.8% under setting [14]; 43.7% under setting [15]; 29.2% under setting [16]; 15.8% under setting [17]; 2.31% under setting [30]; 0.19% under setting [31]. In addition, the viability, T/C reads like this: under setting [18], 52.8%; under setting [19], 41.5%; under setting [20], 25.7%; under setting [21], 16.9%; under setting [32], 2.53%; under setting [33], 0.13%. For the same molecule, the viability, T/C under setting [22] is 38.1%; the viability, T/C under setting [23] is 36.4%; the viability, T/C under setting [24] was 24.8%; the viability, T/C under setting [25] was 19.2%; the viability, T/C (second compound 10 µM, first compound 3.16 µM) was 3.45%; the viability, T/C (second compound 10 µM, first compound 10 µM) is 0.21%.
For `CC(=O)Nc1cccc(-n2c(=O)n(C3CC3)c(=O)c3c(Nc4ccc(I)cc4F)n(C)c(=O)c(C)c32)c1`, the viability, T/C is 73.6% [middle of 5 runs] (compound 0.0001 µM); 51.5% [middle of 5 runs] (compound 0.000316 µM); 28.9% [middle of 5 runs] (compound 0.001 µM); 17.8% [middle of 5 runs] (compound 0.00316 µM); 12.7% [middle of 5 runs] (compound 0.01 µM); 8.87% [middle of 4 runs] (compound 0.0316 µM). For the same molecule, where the note is “curve of compound”, the IC50 was 0.328 nM [middle of 5 runs].
As to `CN(C)C/C=C/C(=O)Nc1cc2c(Nc3ccc(F)c(Cl)c3)ncnc2cc1O[C@H]1CCOC1`, the viability, T/C (compound 0.000316 µM) was 101% [middle of 5 runs]; the viability, T/C (compound 0.001 µM) was 101% [middle of 5 runs]; the viability, T/C (compound 0.00316 µM) was 85.6% [middle of 5 runs]; the viability, T/C (compound 0.01 µM) is 82.7% [middle of 5 runs]; the viability, T/C (compound 0.0316 µM) is 75.9% [middle of 5 runs]; the viability, T/C (compound 0.1 µM) is 70.9% [middle of 5 runs]. Further, the IC50 (curve of compound) was > 100 nM.

The values above are taken from PubChem BioAssay AID1963870 (Molecular Pharmacology Branch, DTP, NCI, 2024).
